Results: US20240360114A1 (SIRONAX LTD., priority 2021, published 2024)

Tested on: HT-1080 cells
Assay: HT-1080 cell viability assay (ferroptosis induced by RSL3, Cell Titer-Glo)
Assay type: cell-based
Conditions: Homo sapiens, HT-1080, 20 h, ferroptosis inducer RSL3, 20 hours, ferroptosis inhibitory activity, Table 2
How it was run: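 Cells seeded overnight, then co-treated with RSL3 and compound (3-fold, 10-point dilution, top 1.1 μM) for 20 hours. Viability by CellTiter-Glo luminescence, normalized to untreated controls; EC50 from sigmoidal non-linear regression.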

SMILES | EC50 [nM]
CC1CN(c2c(F)cc(NC[C@H]3CC[C@H](N)CC3)cc2F)CC(C)O1 (some centres unmarked) [Compound 439, N-(((1r,4r)-4-aminocyclohexyl)methyl)-4-(2,6-dimethylmorpholino)-3,5-difluoroaniline] | 100 to 1000
CC1CN(c2ccc(NC3CCC(C)(N)CC3)cc2F)CC(C)O1 (centres unmarked) [Compound 458, N1-(4-(2,6-dimethylmorpholino)-3-fluorophenyl)-4-methylcyclohexane-1,4-diamine] | 100 to 1000
Cc1nc(N2CCC3(CCCCO3)CC2)ccc1NC1CC2(CC(N)C2)C1 (centres unmarked) [Compound 509, N2-(2-methyl-6-(1-oxa-9-azaspiro [5.5]undecan-9-yl)pyridin-3-yl)spiro[3.3]heptane-2,6-diamine] | 0.1 to 100
O=C1CC(C(=O)NC2CC(Nc3ccc(C4CCCCC4)cc3)C2)CN1 (centres unmarked) [Compound 112, N-(3-((4-cyclohexylphenyl)amino)cyclobutyl)-5-oxopyrrolidine-3-carboxamide] | 100 to 1000
Cc1nc(N2C[C@@H](C)O[C@@H](C)C2)ccc1NC1CC2(CC(N)C2)C1 (some centres unmarked) [Compound 488A, N2-(6-(2,6-dimethylmorpholino)-2-methylpyridin-3-yl)spiro[3.3]heptane-2,6-diamine] | 0.1 to 100
CC(C)C1CCN(c2ncc(NC3CCNC3)cn2)CC1 (centres unmarked) [Compound 36, 2-(4-isopropylpiperidin-1-yl)-N-(pyrrolidin-3-yl)pyrimidin-5-amine] | 0.1 to 100
COC1(C(F)(F)F)CCN(c2ccc(NC[C@H]3CC[C@H](N)CC3)c(C)n2)CC1 [Compound 510, N-(((1r,4r)-4-aminocyclohexyl)methyl)-6-(4-methoxy-4-(trifluoromethyl)piperidin-1-yl)-2-methylpyridin-3-amine] | 0.1 to 100
Cc1cc(N2CCCCC2)ccc1NC[C@H]1CC[C@H](N)CC1 [Compound 379, N-(((1r,4r)-4-aminocyclohexyl)methyl)-2-methyl-4-(piperidin-1-yl)aniline] | 0.1 to 100
NC1CCC(Nc2cccc(N3CCC(C(F)(F)F)CC3)c2)CC1 (centres unmarked) [Compound 384, N1-(3-(4-(trifluoromethyl)piperidin-1-yl)phenyl)cyclohexane-1,4-diamine] | 100 to 1000
N[C@H]1CC[C@H](CNc2ccc(N3CCC(C(F)(F)F)CC3)nc2F)CC1 [Compound 395, N-(((1r, 4r)-4-aminocyclohexyl)methyl)-2-fluoro-6-(4-(trifluoromethyl)piperidin-1-yl)pyridin-3-amine] | 0.1 to 100
CC(C)(C)Nc1ccc(N2CCC(C(F)(F)F)CC2)cc1 [Compound 11, N-(tert-butyl)-4-(4-(trifluoromethyl)piperidin-1-yl)aniline] | 100 to 1000
O=C1CC(C(=O)NC2CC3(C2)CC(Nc2ccc(N4CCC(C(F)(F)F)CC4)cc2)C3)CN1 (centres unmarked) [Compound 375] | 0.1 to 100
NC1CCC(Nc2cccc3c2CCO3)CC1 (centres unmarked) [Compound 164, N1-(2,3-dihydrobenzofuran-4-yl)cyclohexane-1,4-diamine] | 1000 to 10000
NC1CC(Nc2ccc(C3CCCCC3)cc2)C1 (centres unmarked) [Compound 132, N1-(4-cyclohexylphenyl)cyclobutane-1,3-diamine] | 0.1 to 100
NC1CCC(Nc2cnc(N3CC4(CCC4)C3)nc2)CC1 (centres unmarked) [Compound 47, N1-(2-(2-azaspiro[3.3]heptan-2-yl)pyrimidin-5-yl)cyclohexane-1,4-diamine] | 100 to 1000
Cc1nc(N2CCC(C(F)(F)F)CC2)ncc1NC1CCC(N)CC1 (single isomer, unassigned) [Compound 65A, N1-(4-methyl-2-(4-(trifluoromethyl)piperidin-1-yl)pyrimidin-5-yl)cyclohexane-1,4-diamine] | 0.1 to 100
Cc1nc(N2CCC3(CCOCC3)C2)ccc1NC1CC2(CC(N)C2)C1 (centres unmarked) [Compound 507, N2-(2-methyl-6-(8-oxa-2-azaspiro[4.5]decan-2-yl)pyridin-3-yl)spiro[3.3]heptane-2,6-diamine] | 100 to 1000

The next lines start with the values.

EC50 [nM] | SMILES
0.1 to 100 | NC1CCC(Nc2ccc3nc(N4CCC(C(F)(F)F)CC4)ccc3c2)CC1 (centres unmarked) [Compound 562, N-(2-(4-(trifluoromethyl)piperidin-1-yl)quinolin-6-yl)cyclohexane-1,4-diamine]
0.1 to 100 | Cc1cc(NC2CCC(CN)CC2)cc(C)c1C (centres unmarked) [Compound 312, N-(4-(aminomethyl)cyclohexyl)-3,4,5-trimethylaniline]
0.1 to 100 | CC(C)(C)c1ccc(NC2CCC(CNCCO)CC2)cc1 (centres unmarked) [Compound 322, 2-(((4-((4-(tert-butyl)phenyl)amino)cyclohexyl)methyl)amino)ethan-1-ol]
0.1 to 100 | CC(C)(C)c1ccc(NC2CCC(CCCCN)CC2)cc1 (centres unmarked) [Compound 303, N-(4-(4-aminobutyl)cyclohexyl)-4-(tert-butyl)aniline]
1000 to 10000 | CC(C)(C)c1ccccc1NC1CCC(N)CC1 (centres unmarked) [Compound 126, N1-(2-(tert-butyl)phenyl)cyclohexane-1,4-diamine]
0.1 to 100 | CCCCCN(CC)c1ccc(NC[C@H]2CC[C@H](N)CC2)cc1 [Compound 386, N1-(((1r,4r)-4-aminocyclohexyl)methyl)-N4-ethyl-N4-pentylbenzene-1,4-diamine]
0.1 to 100 | CCC(C)(C)c1ccc(NC2CCC(N)C2)cc1 (centres unmarked) [Compound 272, N^1-(4-(tert-pentyl)phenyl)cyclopentane-1,3-diamine]
0.1 to 100 | CCc1c(C)cc(NC2CCC(N)CC2)cc1C (centres unmarked) [Compound 281, N1-(4-ethyl-3,5-dimethylphenyl)cyclohexane-1,4-diamine]
0.1 to 100 | CC(C)c1ccc(NC2CCC(CN)CC2)cc1 (centres unmarked) [Compound 283, N-(4-(aminomethyl)cyclohexyl)-4-isopropylaniline]
0.1 to 100 | CC(C)C1CCN(c2ccc(NC3CCC(N)CC3)cc2)CC1 (centres unmarked) [Compound 63, N1-(4-(4-isopropylpiperidin-1-yl)phenyl)cyclohexane-1,4-diamine]
100 to 1000 | CC1CN(c2ccc(NC3CCC(N)CC3)cc2F)CC(C)O1 (centres unmarked) [Compound 456, N1-(4-(2,6-dimethylmorpholino)-3-fluorophenyl)cyclohexane-1,4-diamine]
100 to 1000 | COc1cc(NC[C@H]2CC[C@H](N)CC2)ccc1N1C[C@@H](C)O[C@@H](C)C1 [Compound 495, N-(((1r,4R)-4-aminocyclohexyl)methyl)-4-((2S,6R)-2,6-dimethylmorpholino)-3-methoxyaniline]
0.1 to 100 | CNC1CCC(Nc2ccc(C(C)(C)C)cc2)CC1 (centres unmarked) [Compound 147, N1-(4-(tert-butyl)phenyl)-N4-methylcyclohexane-1,4-diamine]
100 to 1000 | Cc1nc(C2CCC(C)(C)CC2)ccc1NC1CCC(CN)CC1 (centres unmarked) [Compound 80, N-(4-(aminomethyl)cyclohexyl)-6-(4,4-dimethylcyclohexyl)-2-methylpyridin-3-amine]
0.1 to 100 | CC1(C)CN(c2ccc(NC[C@H]3CC[C@H](N)CC3)cc2)CC(C)(C)O1 [Compound 445, N-(((1r,4r)-4-aminocyclohexyl)methyl)-4-(2,2,6,6-tetramethylmorpholino)aniline]
1000 to 10000 | CC(C)(C)c1ccc(NCCn2ccnc2)cc1 [Compound 175, N-(2-(1H-imidazol-1-yl)ethyl)-4-(tert-butyl)aniline]
1000 to 10000 | CC(C)(C)c1ccc(NC2CCC(O)C(O)C2)cc1 (centres unmarked) [Compound 255, 4-((4-(tert-butyl)phenyl)amino)cyclohexane-1,2-diol]
0.1 to 100 | CC1(C)CCC(c2ccc(NC3CCC(CNC(=O)[C@H]4CC(=O)NC(=O)N4)CC3)cc2)CC1 (single isomer, unassigned) [Compound 148A]
0.1 to 100 | Cn1cc(NCC2CCC(Nc3ccc(C(C)(C)C)cc3)CC2)cn1 (centres unmarked) [Compound 346, N-((4-((4-(tert-butyl)phenyl)amino)cyclohexyl)methyl)-1-methyl-1H-pyrazol-4-amine]

Same assay, conditions: Homo sapiens, HT-1080, 20 h, ferroptosis inducer RSL3, 20 hours, ferroptosis inhibitory activity, Table 3

EC50 [nM] | SMILES
100 to 1000 | CC[C@@H]1CN(c2ccc(N[C@H]3C[C@@H](N)C3)c(C)n2)C[C@H](C)O1 [Compound 618, (1s,3S)-N1-(6-((2R,6S)-2-ethyl-6-methylmorpholino)-2-methylpyridin-3-yl)cyclobutane-1,3-diamine]
0.1 to 100 | COCCN(CC(F)(F)F)c1ccc(NC2CC3(CC(N)C3)C2)c(C)n1 (centres unmarked) [Compound 660, N^5-(6-aminospiro[3.3]heptan-2-yl)-N^2-(2-methoxyethyl)-6-methyl-N2-(2,2,2-trifluoroethyl)pyridine-2,5-diamine]
0.1 to 100 | C[C@@H]1CN(c2ccc3cc(NC4CC(CN)C4)ccc3c2)C[C@H](C)O1 (stereo partly drawn) [Compound 649, N-(3-(aminomethyl)cyclobutyl)-6-((2S,6R)-2,6-dimethylmorpholino) naphthalen-2-amine]
0.1 to 100 | Cc1nc(N2C[C@@H](C)O[C@@H](C)C2)ccc1NCC12C3C4C1C1C2C3C41CN (stereo partly drawn) [Compound 621, N-((4-(aminomethyl)cuban-1-yl)methyl)-6-((2S,6R)-2,6-dimethylmorpholino)-2-methylpyridin-3-amine]
0.1 to 100 | Cc1nc(N2CCN(C(=O)C(F)(F)F)C(C)C2)ccc1NC1CC2(CC(N)C2)C1 (centres unmarked) [Compound 611, 1-(4-(5-((6-aminospiro[3.3]heptan-2-yl)amino)-6-methylpyridin-2-yl)-2-methylpiperazin-1-yl)-2,2,2-trifluoroethan-1-one]

Same assay, conditions: Homo sapiens, ferroptosis inducer RSL3, 20 hours, ferroptosis inhibitory activity, Table 2

SMILES | EC50 [nM]
FC(F)(F)C1CCN(c2ccc(NC3CCNCC3)cc2)CC1 [Compound 20, N-(4-(4-(trifluoromethyl)piperidin-1-yl)phenyl)piperidin-4-amine] | 0.1 to 100
CC1(C)CCC(c2ccc(NC3CCC(CNC(N)=O)CC3)cc2)CC1 (centres unmarked) [Compound 116, 1-((4-((4-(4,4-dimethylcyclohexyl)phenyl)amino)cyclohexyl)methyl)urea] | 0.1 to 100

Same assay, conditions: ferroptosis inducer RSL3, 20 hours, ferroptosis inhibitory activity, Table 2

EC50 [nM] | SMILES
100 to 1000 | CCC(C)(C)c1ccc(NC2CCC(NCCO)CC2)cc1 (single isomer, unassigned) [Compound 295A, 2-((4-((4-(tert-pentyl)phenyl)amino)cyclohexyl)amino)ethan-1-ol]
